Like-named read-outs stand apart in the source and are kept apart here.
System: SSTR2 mutants
Assay: SSTRs Gi-mediated cAMP inhibition, GloSensor, HEK293, 5 μM forskolin, 15 min room temperature (SSTR2 mutants)
Type: cell-based, human
Design: Best-fit Bottom, cAMP inhibition / Best-fit Top, cAMP inhibition / Span, cAMP inhibition / Bottom (best-fit value) / Top (best-fit value) / Span (best-fit value) / Span (best-fit) / Bottom (best-fit) / Top (best-fit) / Best-fit Bottom / Best-fit Top / Best-fit Span / Top / Span: scale not given here
Experimental: The levels of the intracellular 3′, 5′-cyclic AMP (cAMP) were measured by the GloSensor cAMP assay (Promega) as described in the previous studies[28],[41] which has been widely used. The human full-length SSTRs and mutants were cloned into the pcDNA3.1+ vector with a HA signal sequence followed by a Flag tag at the N-terminus. HEK293 cells (ATCC, CRL-1573) were seeded into 6-well microplates at a density of 1.0 × 10^6 cells/well and cultured for 24 h at 37 °C with 5% CO2. Cells were then co-transfected with SSTR wild-type or mutants and GloSensor plasmids. After 24 h of transfection, the cells were dissociated with TrypLE™ Express Enzyme (1X) (Thermo Fisher Scientific) and collected by centrifugation at 500 × g for 5 min. Then the collected cells were suspended in Hank’s balanced salt solution [HBSS (Thermo Fisher Scientific)] supplemented with […] (YEASEN), and then the suspension cells were seeded into 96-well plates with 90 μl/well. After incubating at room temperature for 40 min, 5 μM forskolin and ligands diluted in HBSS were added to each well and the plates were incubated at room temperature for 15 min. […] were measured using the Synergy H1 microplate reader (BioTek) and the data presented are means of at least three independent experiments.

## C[C@@H](O)[C@@H]1NC(=O)[C@H](CCCCN)NC(=O)[C@@H](Cc2c[nH]c3ccccc23)NC(=O)[C@H](Cc2ccccc2)NC(=O)[C@@H](NC(=O)[C@H](N)Cc2ccccc2)CSSC[C@@H](C(=O)N[C@H](CO)[C@@H](C)O)NC1=O [octreotide]
SSTR2 I195A-1, run 1
  Best-fit Top, cAMP inhibition: 99.51
  LogEC50, cAMP inhibition: -8.167
  Span, cAMP inhibition: 98.37
SSTR2 I195A-1, run 1, read-out: EC50, cAMP inhibition
  EC50: 6.8 nM
SSTR2 I195A-2, run 2
  Best-fit Bottom, cAMP inhibition: -0.2331
  Best-fit Top, cAMP inhibition: 94.69
  LogEC50, cAMP inhibition: -8.189
  Span, cAMP inhibition: 94.92
SSTR2 I195A-2, run 2, read-out: EC50, cAMP inhibition
  EC50: 6.47 nM
SSTR2 I195A-3, run 3
  Best-fit Bottom, cAMP inhibition: 2.536
  Best-fit Top, cAMP inhibition: 107
  LogEC50, cAMP inhibition: -8.29
  Span, cAMP inhibition: 104.4
SSTR2 I195A-3, run 3, read-out: EC50, cAMP inhibition
  EC50: 5.13 nM
SSTR2 L99A-1, run 1
  Best-fit Bottom, cAMP inhibition: -0.05878
  Best-fit Top, cAMP inhibition: 83.27
  LogEC50, cAMP inhibition: -8.764
  Span, cAMP inhibition: 83.33
SSTR2 L99A-1, run 1, read-out: EC50, cAMP inhibition
  EC50: 1.72 nM
SSTR2 L99A-2, run 2
  Best-fit Bottom, cAMP inhibition: 3.887
  Best-fit Top, cAMP inhibition: 89.82
  LogEC50, cAMP inhibition: -8.724
  Span, cAMP inhibition: 85.94
SSTR2 L99A-2, run 2, read-out: EC50, cAMP inhibition
  EC50: 1.89 nM
SSTR2 L99A-3, run 3
  Best-fit Bottom, cAMP inhibition: 6.223
  Best-fit Top, cAMP inhibition: 104
  LogEC50, cAMP inhibition: -9.836
  Span, cAMP inhibition: 97.82
SSTR2 L99A-3, run 3, read-out: EC50, cAMP inhibition
  EC50: 0.146 nM
SSTR2 Q102A-1, run 1
  Best-fit Bottom, cAMP inhibition: 2.423
  Best-fit Top, cAMP inhibition: 108.7
  LogEC50, cAMP inhibition: -7.926
  Span, cAMP inhibition: 106.2
SSTR2 Q102A-1, run 1, read-out: EC50, cAMP inhibition
  EC50: 11.9 nM
SSTR2 Q102A-2, run 2
  Best-fit Bottom, cAMP inhibition: 0.4721
  Best-fit Top, cAMP inhibition: 108.9
  LogEC50, cAMP inhibition: -7.92
  Span, cAMP inhibition: 108.4
SSTR2 Q102A-2, run 2, read-out: EC50, cAMP inhibition
  EC50: 12 nM
SSTR2 Q102A-3, run 3
  Best-fit Bottom, cAMP inhibition: 3.028
  Best-fit Top, cAMP inhibition: 105.6
  LogEC50, cAMP inhibition: -7.863
  Span, cAMP inhibition: 102.6
SSTR2 Q102A-3, run 3, read-out: EC50, cAMP inhibition
  EC50: 13.7 nM
SSTR2 T194A-1, run 1
  Best-fit Top, cAMP inhibition: 84.79
  LogEC50, cAMP inhibition: -7.026
  Span, cAMP inhibition: 77.01
SSTR2 T194A-1, run 1, read-out: EC50, cAMP inhibition
  EC50: 94.2 nM
SSTR2 T194A-2, run 2
  Best-fit Top, cAMP inhibition: 94.26
  LogEC50, cAMP inhibition: -7.558
  Span, cAMP inhibition: 87.81
SSTR2 T194A-2, run 2, read-out: EC50, cAMP inhibition
  EC50: 27.7 nM
SSTR2 T194A-3, run 3
  Best-fit Top, cAMP inhibition: 95.49
  LogEC50, cAMP inhibition: -7.626
  Span, cAMP inhibition: 91.25
SSTR2 T194A-3, run 3, read-out: EC50, cAMP inhibition
  EC50: 23.7 nM
SSTR2 V103A-1, run 1
  Best-fit Bottom, cAMP inhibition: 3.112
  Best-fit Top, cAMP inhibition: 97.5
  LogEC50, cAMP inhibition: -8.546
  Span, cAMP inhibition: 94.39
SSTR2 V103A-1, run 1, read-out: EC50, cAMP inhibition
  EC50: 2.85 nM
SSTR2 V103A-2, run 2
  Best-fit Bottom, cAMP inhibition: -14.84
  Best-fit Top, cAMP inhibition: 85.83
  LogEC50, cAMP inhibition: -8.054
  Span, cAMP inhibition: 100.7
SSTR2 V103A-2, run 2, read-out: EC50, cAMP inhibition
  EC50: 8.84 nM
SSTR2 V103A-3, run 3
  Best-fit Bottom, cAMP inhibition: -3.777
  Best-fit Top, cAMP inhibition: 89.06
  LogEC50, cAMP inhibition: -7.947
  Span, cAMP inhibition: 92.84
SSTR2 V103A-3, run 3, read-out: EC50, cAMP inhibition
  EC50: 11.3 nM
SSTR2 Y50A-1, run 1
  Best-fit Bottom, cAMP inhibition: 9.945
  Best-fit Top, cAMP inhibition: 106.2
  LogEC50, cAMP inhibition: -9.897
  Span, cAMP inhibition: 96.25
SSTR2 Y50A-2, run 2
  Best-fit Bottom, cAMP inhibition: -3.529
  Best-fit Top, cAMP inhibition: 103.6
  LogEC50, cAMP inhibition: -10.54
  Span, cAMP inhibition: 107.2
SSTR2 Y50A-2, run 2, read-out: EC50, cAMP inhibition
  EC50: 0.0288 nM
SSTR2 Y50A-3, run 3
  Best-fit Bottom, cAMP inhibition: 9.945
  Best-fit Top, cAMP inhibition: 106.2
  LogEC50, cAMP inhibition: -9.897
  Span, cAMP inhibition: 96.25
SSTR2 Y50A-3, run 3, read-out: EC50, cAMP inhibition
  EC50: 0.127 nM
Suppl. Tables 4/5, SSTR2 T194(45.51)H, n=3
  Emax: 88.27±7.62 %WT SSTR2
Suppl. Tables 4/5, SSTR2 V103(2.64)N, n=3
  Emax: 94.00±3.65 %WT SSTR2
Suppl. Tables 4/5, SSTR2 V103(2.64)N, n=3, read-out: EC50
  EC50: 0.23 nM
T194(45.51)H in SSTR2
  Receptor activation of mutant: significantly reduced receptor activation
T194A-1, run 1
  Bottom (best-fit value): 7.78
T194A-2, run 2
  Bottom (best-fit value): 6.447
T194A-3, run 3
  Bottom (best-fit value): 4.244
T287A-1, run 1
  Bottom (best-fit value): 2.841
  LogEC50 (best-fit value): -9.206
  Span (best-fit value): 86.99
  Top (best-fit value): 89.83
T287A-1, run 1, read-out: EC50 (best-fit value)
  EC50: 0.623 nM
T287A-2, run 2
  Bottom (best-fit value): -10.83
  LogEC50 (best-fit value): -9.285
  Span (best-fit value): 118.8
  Top (best-fit value): 108
T287A-2, run 2, read-out: EC50 (best-fit value)
  EC50: 0.519 nM
T287A-3, run 3
  Bottom (best-fit value): 2.734
  LogEC50 (best-fit value): -9.182
  Span (best-fit value): 94.95
  Top (best-fit value): 97.68
T287A-3, run 3, read-out: EC50 (best-fit value)
  EC50: 0.658 nM
V103(2.64)N mutant of SSTR2
  EC50 of mutant versus wild-type: retained a similar EC50 as wild-type receptor
W188A-1, run 1
  Bottom (best-fit value): -1.717
  LogEC50 (best-fit value): -9.896
  Span (best-fit value): 106.4
  Top (best-fit value): 104.7
W188A-1, run 1, read-out: EC50 (best-fit value)
  EC50: 0.127 nM
W188A-2, run 2
  Bottom (best-fit value): 1.331
  LogEC50 (best-fit value): -10.14
  Span (best-fit value): 108.6
